# Measured values taken from US10799467B2, “Use of the phytocannabinoid cannabidivarin (CBDV) in the treatment of epilepsy” (GW Pharma Limited, priority 2010, dated 2020).
# Assays:
# [1] = test system: motor function; test: Linearly accelerating rotarod test of motor function; format: in vivo, rats; settings: for time remaining on the rotarod (latency to fall): 60 minutes after administration, vehicle 111.6 seconds
# Description: Each animal received either CBDV (100 or 200 mg/kg, n=10 for each group) or vehicle (2:1:17 Cremophor:ethanol:saline [n=12] or saline [n=11]) on a given experimental day. Experimental test days were separated by a two day rest period to allow for clearance of previous compounds. The order of drug administration was randomised using a standard Latin square design.
# 60 minutes after CBDV or vehicle administration, animals were placed on a linearly accelerating rotarod (Panlab/Harvard Apparatus, Holliston, USA) that increased in speed from 4 to 40 rpm over a 300 second period. An accelerating protocol was employed to eliminate the need for habituation to the rotarod, minimising divergence in the results obtained for each animal owing to disproportionate improvements in performance. Each test ended when the animal fell from the rotarod, with each animal performing three accelerating rotarod runs per experimental day. Animals were allowed a 5 minute recovery between tests to prevent fatigue-induced declines in performance. Mean latency in seconds to fall from the rotarod was compared between vehicle control and CBDV groups to assess motor function.
# To assess whether there were significant effects on motor function between the two different vehicle treatments, we subjected the data to Mann-Whitney U test. Lack of significance in this analysis would allow us to combine vehicle groups thereby reducing duration of testing (i.e. each rat would undertake only one vehicle treatment test day rather than two). For analysis of CBDV effects on motor function, data were subjected to a between-subjects 1-way ANOVA with drug concentration as the main factor. In all cases, P≤0.05 was considered to be significant.
# [2] = test system: PTZ-induced seizures; test: PTZ model of generalised seizures (80 mg/kg PTZ); format: in vivo, Wistar rats; settings: for proportion of animals that died / proportion of animals reaching tonic-clonic seizures: vehicle 8 of 15
# Description: Male Wistar rats (P24-29; 75-110 g) were used to assess the effects of the phytocannabinoid CBDV in the PTZ model of generalised seizures. Animals were habituated to the test environment, cages, injection protocol and handling prior to experimentation. Animals were housed in a room at 21° C. on a 12 hour light: dark cycle (lights on 0900) in 50% humidity, with free access to food and water.
# Five 6 L Perspex tanks with lids were placed on a single bench with dividers between them. Closed-circuit television (CCTV) cameras were mounted onto the dividers to observe rat behaviour. Sony Topica CCD cameras (Bluecherry, USA) were linked via BNC cables to a low-noise PC via Brooktree digital capture cards (Bluecherry, USA). Zoneminder (http://www.zoneminder.com) software was used to monitor rats, start and end recordings and manage video files. In-house Linux scripts were used to encode video files into a suitable format for further offline analysis using The Observer (Noldus Technologies).
# A range of doses of PTZ (50-100 mg/kg body weight) were used to determine the best dose for induction of seizures (see below). As a result, a dose of 80 mg/kg injected intra-peritoneally (IP; stock solution 50 mg/ml in 0.9% saline) were used to screen the CBDV.
# On the day of testing, pure CBDV was administered via intra-peritoneal (i.p.) injection at doses of 50, 100 and 200 mg/kg alongside animals that were injected with a matched volume of the cannabinoid vehicle (2:1:17 ethanol:Cremophor: 0.9% w/v NaCl solution), which served as the negative control group. Animals were then observed for 1 hour, after which time they received an IP injection of 80 mg/kg PTZ. Negative vehicle controls were performed in parallel with cannabinoid-dosed subjects. After receiving a dose of PTZ, animals were observed and videoed to determine the severity of seizure and latency to several seizure behaviour types (see in vivo analysis, below). Animals were filmed for half an hour after last sign of seizure, and then returned to their cage.
# Animals were observed during experimental procedures, but all analysis was performed offline on recorded video files using The Observer behavioural analysis software (Noldus, Netherlands). A seizure severity scoring system was used to determine the levels of seizure experienced by subjects (Pohl & Mares, 1987). All signs of seizure were detailed for all animals.
# The latency (in seconds) from injection of PTZ to first myoclonic jerk (FMJ; score of 1), and to the animal attaining “forelimb clonus with tonic component and body twist” (score of 3.5) were recorded. FMJ is an indicator of the onset of seizure activity, whilst >90% of animals developed scores of 3.5, and so is a good marker of the development of more severe seizures. Data are presented as the mean±S.E.M. within an experimental group.
# This is given as the median value for each experimental group based on the scoring scale below.
# The percentage of animals within an experimental group that died as a result of PTZ-induced seizures. Note that the majority of animals that developed tonic-clonic seizures (scores of 4 and 5) died as a result, and that a score of 6 (death) automatically denotes that the animal also experienced tonic-clonic seizures.
# This is given as the mean±S.E.M. for each experimental group.
# For measures of latency and severity, one way analysis of variance (ANOVA) was performed on the four groups together (vehicle and 50, 100 and 200 mg/kg CBDV) to detect overall effects of CBDV (p≤0.05 considered significant).
# Significant ANOVA results were followed by post hoc tests to test differences between vehicle and drug groups (Tukey's test, p≤0.05 considered significant).
# Methodology as described in Example 2.
# General methodology is as described in Example 2.
# Three doses of THCV BDS were assessed against a concentration of PTZ known to induce moderate seizures in rats (70 mg/kg; see pilot, above). […]
compound,measurement,setting,value
"C=C(C)[C@@H]1CCC(C)=C[C@H]1c1c(O)cc(CCC)cc1O [CBDV, Cannabidivarin]",time remaining on the rotarod (latency to fall),[1]; 100 mg/kg CBDV,86.6 s
same,time remaining on the rotarod (latency to fall),[1]; 200 mg/kg CBDV,110.0 s
same,effect on the latency to fall compared to vehicle,"[1]; CBDV at any dose (100, 200 mg/kg), P=0.253",no effect
same,proportion of animals that died,"[2]; 100 mg/kg CBDV i.p., 80 mg/kg PTZ, p=0.002",1 out of 15
same,proportion of animals reaching tonic-clonic seizures,"[2]; 100 mg/kg CBDV i.p., 80 mg/kg PTZ, p=0.036",4 of 15
same,latency to seizure onset vs vehicle,"[2]; 200 mg/kg CBDV i.p. 1 hour before 80 mg/kg PTZ, p=0.03",significantly higher
same,median seizure severity vs vehicle,"[2]; 200 mg/kg CBDV i.p., 80 mg/kg PTZ, p=0.014",significantly lower
same,latency to clonic seizures vs vehicle,"[2]; 200 mg/kg CBDV i.p., 80 mg/kg PTZ, p=0.032",significant increase
same,animals that experienced no seizure at all,"[2]; 200 mg/kg CBDV i.p., 80 mg/kg PTZ, vehicle 1 of 15, p=0.003",5 of 15
same,proportion of animals that died,"[2]; 200 mg/kg CBDV i.p., 80 mg/kg PTZ, p<0.001",2 out of 15
same,proportion of animals reaching tonic-clonic seizures,"[2]; 200 mg/kg CBDV i.p., 80 mg/kg PTZ, p=0.01",3 of 15
same,latency to tonic-clonic seizures,"[2]; overall or at any specific dose (50, 100, 200 mg/kg CBDV i.p.), 80 mg/kg PTZ",No significant effect
